Target: T1, adenosine A1 receptor (A1AR) (Homo sapiens, UniProt P30542)
T1 sequence (P30542 1-326): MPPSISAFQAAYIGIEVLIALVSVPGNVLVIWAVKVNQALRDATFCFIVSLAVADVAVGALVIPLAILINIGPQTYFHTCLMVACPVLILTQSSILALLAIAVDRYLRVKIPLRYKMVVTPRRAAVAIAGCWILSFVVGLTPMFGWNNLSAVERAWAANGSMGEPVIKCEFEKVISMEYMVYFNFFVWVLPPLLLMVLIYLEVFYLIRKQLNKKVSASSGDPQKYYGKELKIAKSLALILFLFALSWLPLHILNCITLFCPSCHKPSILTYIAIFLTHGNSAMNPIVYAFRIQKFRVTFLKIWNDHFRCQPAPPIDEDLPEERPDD
Test: NanoBRET saturation binding in HEK293 cells
Type: cell-based

Substance: CA200645
- Kd: 110 nM

Reference: PMC9080270 (RSC Advances, 2018)
